Among the data in US20090170846A1, “INHIBITORS OF THE HIV INTEGRASE ENZYME” (Pfizer Inc, priority 2005, published 2009) are EC50 and IC50 values, retold here.

The test system of test [1] is RF strain of HIV-1 in CEM-SS cells. Put plainly: HIV-1 cell protection assay (XTT dye reduction). It counts as cell-based. On the procedure:
HIV-1 Cell Protection Assay
The antiviral activities of potential modulator compounds (test compounds) were determined in HIV-1 cell protection assays using the RF strain of HIV-1, CEM-SS cells, and the XTT dye reduction method (Weislow, O, S. et al., J. Natl. Cancer Inst 81: 577-586 (1989)). Subject cells were infected with HIV-1 RF virus at an moi of to affect about a 90% kill (for example, an moi in the range of from about 0.025 to about 0.819) or mock infected with medium only and added at 2×10^4 cells per well, with the addition of approximately 200 μL of medium, into 96 well plates containing half-log dilutions of test compounds. Six days later, 50 μl of XTT solution (1 mg/ml XTT tetrazolium and 20 nM phenazine methosulfate) were added to the wells and the plates were reincubated for four hours. Viability, as determined by the amount of XTT formazan produced, was quantified spectrophotometrically by absorbance at 450 nm.
Data from CPE assays were expressed as the percent of formazan produced in compound-treated cells compared to formazan produced in wells of uninfected, compound-free cells. The fifty percent effective concentration (EC50) was calculated as the concentration of compound that affected an increase in the percentage of formazan production in infected, compound-treated cells to 50% of that produced by uninfected, compound-free cells. The 50% cytotoxicity concentration (CC50) was calculated as the concentration of compound that decreased the percentage of formazan produced in uninfected, compound-treated cells to 50% of that produced in uninfected, compound-free cells. The therapeutic index was calculated by dividing the cytotoxicity (CC50) by the antiviral activity (EC50).

Test [2] has as its target T1, Full-length wild type HIV-1 integrase (SF1) (Human immunodeficiency virus type 1 group M subtype B, UniProt P04585).
T1 construct: made in house; host or cells: E. coli BL21 (DE3)
Kind of test: Integrase strand-transfer scintillation proximity assay. The format is biochemical. The following applies: integrase strand-transfer SPA; read-out: IC50. From the text: Integrase Strand-Transfer Scintillation Proximity Assay
Oligonucleotides: Oligonucleotide #1-5′-(biotin)[…]-3′ (SEQ ID NO: 1) and oligonucleotide #2-5′-[…]-3′ (SEQ ID NO: 2), were synthesized by TriLink BioTechnologies, Inc. (San Diego, Calif.). The annealed product represents preprocessed viral ds-DNA derived from the LTR U5 sequence of the viral genome. A ds-DNA control to test for non-specific interactions was made using a 3′ di-deoxy derivative of oligonucleotide #1 annealed to oligonucleotide #2. The CA overhang at the 5′ end of the non-biotinylated strand of the ds-DNA was created artificially by using a complimentary DNA oligonucleotide shortened by 2 base pairs. This configuration eliminates the requisite 3′ processing step of the integrase enzyme prior to the strand-transfer mechanism.
Host ds-DNA was prepared as an unlabeled and [^3H]-thymidine labeled product from annealed oligonucleotide #3-5-[…]-3′ (SEQ ID NO: 3), and oligonucleotide #4-1-5′-[…]-3′ (SEQ ID NO: 4), both synthesized by TriLink BioTechnologies, Inc. (San Diego, Calif.). The annealed product had overhanging 3′ ends of poly(dA). Host DNA was custom radiolabeled by PerkinElmer Life Sciences Inc. (Boston, Mass.) using an enzymatic method with a 12/1 ratio of [methyl-^3H]dTTP/cold ds-DNA to yield 5′-blunt end ds-DNA with a specific activity of >900 Ci/mmol. The radiolabeled product was purified using a NENSORB cartridge and stored in stabilized aqueous solution (PerkinElmer). The final radiolabeled product had six [^3H]-thymidine nucleotides at both 5′ ends of the host ds-DNA.
Reagents: Streptavidin-coated polyvinyltoluene (PVT) SPA beads were purchased from Amersham Biosciences (Piscataway, N.J.). Cesium chloride was purchased from Shelton Scientific, Inc. (Shelton, Conn.). White, polystyrene, flat-bottom, non-binding surface, 96-well plates were purchased from Corning. All other buffer components were purchased from Sigma (St. Louis, Mo.) unless otherwise indicated.
Enzyme Construction Full-length wild type HIV-1 integrase (SF1) sequence (amino acids 1-289) was constructed in a pET24a vector (Novagen, Madison, Wis.). The construct was confirmed through DNA sequencing.
Enzyme Purification Full length wild-type HIV Integrase was expressed in E. coli BL21 (DE3) cells and induced with 1 mM isopropyl-1 thio-β-D-galactopyranoside (IPTG) when cells reached an optical density between 0.8-1.0 at 600 nm. Cells were lysed by microfluidation in 50 mM HEPES pH 7.0, 75 mM NaCl, 5 mM DTT, 1 mM 4-(2-Aminoethyl)benzenesulfonylfluoride HCl (AEBSF). Lysate was then centrifuged 20 minutes at 11 k rpm in GSA rotor in Sorvall RC-5B at 4° C. Supernant was discarded and pellet resuspended in 50 mM HEPES pH 7.0, 750 mM NaCl, 5 mM DTT, 1 mM AEBSF and homogenized in a 40 mL Dounce homogenizer for 20 minutes on ice. Homogenate was then centrifuged 20 minutes at 11 k rpm in SS34 rotor in Sorvall RC-5B at 4° C. Supernant was discarded and pellet resuspended in 50 mM HEPES pH 7.0, 750 mM NaCl, 25 mM CHAPS, 5 mM DTT, 1 mM AEBSF. Preparation was then centrifuged 20 minutes at 11 k rpm in SS34 rotor in Sorvall RC-5B at 4° C.
Supernant was then diluted 1:1 with 50 mM HEPES pH 7.0, 25 mM CHAPS, 1 mM DTT, 1 mM AEBSF and loaded onto a Q-Sepharose column pre-equilibrated with 50 mM HEPES, pH 7.0, 375 mM NaCl, 25 mM CHAPS, 1 mM DTT, 1 mM AEBSF. The flow through peak was collected and NaCl diluted to 0.1 M with 50 mM HEPES pH 7.0, 25 mM CHAPS, 1 mM DTT, 0.5 mM AEBSF and loaded onto a SP-Sepharose column pre-equilibrated with 50 mM HEPES pH 7.0, 100 mM NaCl, 25 mM CHAPS, 1 mM DTT, 0.5 mM AEBSF. After washing the column with the equilibration buffer, a 100 to 400 mM NaCl gradient was run. The eluted integrase was concentrated and run on a S-300 gel diffusion column using 50 mM HEPES pH 7.0, 500 mM NaCl, 25 mM CHAPS, 1 mM DTT, 0.5 mM AEBSF. The peak from this column was concentrated to 0.76 mg/mL and stored at −70° C. and later used for strand transfer assays. […]
Background: In a scintillation proximity assay essentially only radioactivity close to the scintillant gives light.

Where [3] appears, read: Human immunodeficiency virus 1, 144 h, HIV-1 RF, CEM-SS cells, XTT, six days, read-out: EC50.
The mark [4] stands for this setting: Human immunodeficiency virus 1, CEM-SS, 144 h.

SMILES strings stand for the structures. Like-named read-outs stand apart in the source and are kept apart here.

Take `CN(O)C(=O)c1cc2c(S(=O)(=O)NCCCO)cn(Cc3ccc(F)cc3)c2cn1` [Example 50, 1-(4-fluorobenzyl)-N-hydroxy-3-{[(3-hydroxypropyl)amino]sulfonyl}-N-methyl-1H-pyrrolo[2,3-c]pyridine-5-carboxamide]: in test [1] (setting [3]), the concentration for a half-maximal effect (EC50) turned out to be 460 nM.
In the case of `CC(C)NC(=O)c1cn(Cc2ccc(F)cc2)c2cnc(C(=O)N(C)O)cc12` [Example 44, 1-(4-fluorobenzyl)-N5-hydroxy-N3-isopropyl-N5-methyl-1H-pyrrolo[2,3-c]pyridine-3,5-dicarboxamide], the EC50 in test [1] (setting [4]) stood at 70 nM. In addition, the IC50 in test [2] is 205 nM.
For the molecule `CONC(=O)c1cc2c(S(=O)(=O)N3CCOCC3)cn(Cc3ccc(F)cc3)c2cn1` [Example 55, 1-(4-fluorobenzyl)-N-methoxy-3-(morpholin-4-ylsulfonyl)-1H-pyrrolo[2,3-c]pyridine-5-carboxamide], the EC50 in test [1] (setting [3]) came out at 25 nM.
`CN(O)C(=O)c1cc2c(S(=O)(=O)N(C)C)cn(Cc3ccc(F)cc3)c2cn1` [Example 35, 3-[(dimethylamino)sulfonyl]-1-(4-fluorobenzyl)-N-hydroxy-N-methyl-1H-pyrrolo[2,3-c]pyridine-5-carboxamide]: in test [1] (setting [3]), the EC50 is 370 nM. In addition, the IC50 in test [2] is 1030 nM.
With `CN(O)C(=O)c1cc2c(S(=O)(=O)N3CCOCC3)cn(Cc3ccc(F)cc3)c2cn1` [Example 57, 1-(4-fluorobenzyl)-N-hydroxy-N-methyl-3-(morpholin-4-ylsulfonyl)-1H-pyrrolo[2,3-c]pyridine-5-carboxamide], in test [1] (setting [3]), the EC50 was found to be 480 nM.
The molecule `CN(O)C(=O)c1cc2c(C(=O)NCCN3CCOCC3)cn(Cc3ccc(F)cc3)c2cn1` [Example 32, 1-(4-fluorobenzyl)-N~5~- hydroxy-N~5~-methyl-N~3~-(2-morpholin-4-ylethyl)-1H-pyrrolo[2,3-c]pyridine-3,5-dicarboxamide] displayed a concentration giving a half-maximal response (EC50) in test [1] (setting [4]) of 210 nM. In addition, the IC50 in test [2] turned out to be 503 nM.
With `CN(O)C(=O)c1cc2c(S(=O)(=O)N(C)CC3COCCO3)cn(Cc3ccc(F)cc3)c2cn1` (centres unmarked) [Example 56, 3-{[(1,4-dioxan-2-ylmethyl)(methyl)amino]sulfonyl}-1-(4-fluorobenzyl)-N-hydroxy-N-methyl-1H-pyrrolo[2,3-c]pyridine-5-carboxamide], the half-maximal effective concentration (EC50) in test [1] (setting [3]) was determined as 400 nM.
Regarding `CN(O)C(=O)c1cc2c(NS(C)(=O)=O)cn(Cc3ccc(F)cc3)c2cn1` [Example 6, 1-(4-fluorobenzyl)-N-hydroxy-N-methyl-3-[(methylsulfonyl)amino]-1H-pyrrolo[2,3-c]pyridine-5-carboxamide], the EC50 in test [1] (setting [3]) stood at 30 nM. Besides, the IC50 in test [2] worked out at 270 nM.
`O=C(NO)c1cc2c(C(=O)N3CCCC(CO)C3)cn(Cc3ccc(F)cc3)c2cn1` (centres unmarked) [Example 30, 1-(4-fluorobenzyl)-N-hydroxy-3-{[3-(hydroxymethyl)piperidin-1-yl]carbonyl}-1H-pyrrolo[2,3-c]pyridine-5-carboxamide] yielded an EC50 in test [1] (setting [4]) of 110 nM. Further, the IC50 in test [2] amounted to 72 nM.
On the same counts, the results for `O=C(CC(NC(=O)c1cn(Cc2ccc(F)cc2)c2cnc(C(=O)NO)cc12)C1CC1)NC1CC1` (centres unmarked) [Example 24, N~3~-[1-cyclopropyl-3-(cyclopropylamino)-3-oxopropyl]-1-(4-fluorobenzyl)-N~5~- hydroxy-1H-pyrrolo[2,3-c]pyridine-3,5-dicarboxamide] are 380 nM and 16 nM.
With `CC(=O)Nc1cn(Cc2ccc(F)cc2)c2cnc(C(=O)NO)cc12` [Example 1, 3-(acetylamino)-1-(4-fluorobenzyl)-N-hydroxy-1H-pyrrolo[2,3-c]pyridine-5-carboxamide], in test [1] (setting [3]), the concentration for a half-maximal effect (EC50) was 11 nM. For the same molecule, the concentration for half-maximal inhibition (IC50) in test [2] was 130 nM.
Take `O=C(NO)c1cc2c(NS(=O)(=O)Cc3ccccc3)cn(Cc3ccc(F)cc3)c2cn1` [Example 19, 3-[(benzylsulfonyl)amino]-1-(4-fluorobenzyl)-N-hydroxy-1H-pyrrolo[2,3-c]pyridine-5-carboxamide]: the EC50 in test [1] (setting [3]) stood at 18 nM. Further, the half-maximal inhibitory concentration (IC50) in test [2] is 105 nM.
For `CONC(=O)c1cc2c(S(=O)(=O)NCCCO)cn(Cc3ccc(F)cc3)c2cn1` [Example 51, 1-(4-fluorobenzyl)-3-{[(3-hydroxypropyl)amino]sulfonyl}-N-methoxy-1H-pyrrolo[2,3-c]pyridine-5-carboxamide], in test [1] (setting [3]), the EC50 was 110 nM.
The same measure, in the same setting: to `CC(=O)Nc1cn(Cc2ccc(F)cc2)c2cnc(C(=O)N(C)O)cc12` [Example 2, 3-(acetylamino)-1-(4-fluorobenzyl)-N-hydroxy-N-methyl-1H-pyrrolo[2,3-c]pyridine-5-carboxamide] belongs 20 nM; to `COc1ncccc1NS(=O)(=O)c1cn(Cc2ccc(F)cc2)c2cnc(C(=O)N(C)O)cc12` [Example 53, 1-(4-fluorobenzyl)-N-hydroxy-3-{((2-methoxypyridin-3-yl)amino]sulfonyl}-N-methyl-1H-pyrrolo[2,3-c]pyridine-5-carboxamide], 140 nM.
Still for that read-out and setting: as for `CONC(=O)c1cc2c(S(=O)(=O)Nc3cccnc3OC)cn(Cc3ccc(F)cc3)c2cn1` [Example 52, 1-(4-fluorobenzyl)-N-methoxy-3-{[(2-methoxypyridin-3-yl)amino]sulfonyl}-1H-pyrrolo[2,3-c]pyridine-5-carboxamide], the figure is 52 nM; as for `CONC(=O)c1cc2c(S(=O)(=O)N(C)CC3COCCO3)cn(Cc3ccc(F)cc3)c2cn1` (centres unmarked) [Example 54, 3-{[(1,4-dioxan-2-ylmethyl)(methyl)amino]sulfonyl}-1-(4-fluorobenzyl)-N-methoxy-1H-pyrrolo[2,3-c]pyridine-5-carboxamide], 48 nM; as for `CCN(CC)S(=O)(=O)c1cn(Cc2ccc(F)cc2)c2cnc(C(=O)NOC)cc12` [Example 49, 3-[(diethylamino)sulfonyl]-1-(4-fluorobenzyl)-N-methoxy-1H-pyrrolo[2,3-c]pyridine-5-carboxamide], 17 nM.

In general, EC50 refers to the concentration giving half of the maximal effect. As a reminder, the IC50 is the midpoint of a concentration-inhibition curve.
